From the supplement of paper PMC10307832

What was measured:
Test in all cases: relative viability (nuclei count vs DMSO), 5 days (fraction); higher = more cells survive
GSK-J4 + Navitoclax = compound: CCOC(=O)CCNc1cc(N2CCc3ccccc3CC2)nc(-c2ccccn2)n1 [GSK-J4] + CC1(C)CCC(c2ccc(Cl)cc2)=C(CN2CCN(c3ccc(C(=O)NS(=O)(=O)c4ccc(N[C@H](CCN5CCOCC5)CSc5ccccc5)c(S(=O)(=O)C(F)(F)F)c4)cc3)CC2)C1 [Navitoclax] (partner 0.5 µM)
In short: (§1)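 Values are medians from duplicate plates. Each reflects relative viability, defined as the nuclei count of treated wells over that of vehicle wells. Lung cancer cell lines in 1536-well plates were pin-tool dosed one day after seeding with one drug alone or with a fixed anchor-drug dose plus five library-drug doses (not always all listed) in √10 steps, then fixed, stained and imaged at 4× after 5 days.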

GSK-J4 + Foretinib = compound: CCOC(=O)CCNc1cc(N2CCc3ccccc3CC2)nc(-c2ccccn2)n1 [GSK-J4] + COc1cc2c(Oc3ccc(NC(=O)C4(C(=O)Nc5ccc(F)cc5)CC4)cc3F)ccnc2cc1OCCCN1CCOCC1 [Foretinib] (partner 0.25 µM)
In short: as §1

AZ3146 = compound: CN1CCC(CC1)OC2=CC(=C(C=C2)NC3=NC=C4C(=N3)N(C(=O)N4C)C5CCCC5)OC [AZ3146]
In short: (§2)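 After an overnight hold at 37 °C, lung cancer cell lines in 1536-well plates were pinned with five library-drug doses (not always all listed), each √10 from the next, on vehicle-anchored plates. The cells stayed 5 days without fresh medium, then a one-step fix, permeabilisation and Hoechst stain preceded 4× imaging and MetaXpress nuclear counts. A plate passed only with control CV under 25% and at least one doubling. Viability is the median, over plates, of treated-well nuclei relative to vehicle-well nuclei.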

GSK-J4 = compound: CCOC(=O)CCNc1cc(N2CCc3ccccc3CC2)nc(-c2ccccn2)n1 [GSK-J4]
In short: as §2

Cell Line | relative viability (GSK-J4 + Navitoclax; first compound 0.5 µM) | relative viability (GSK-J4 + Navitoclax; first compound 1.581 µM) | relative viability (GSK-J4 + Navitoclax; first compound 5 µM) | relative viability (GSK-J4 + Navitoclax; first compound 15.81 µM) | relative viability (GSK-J4 + Navitoclax; first compound 50 µM) | relative viability (GSK-J4 + Foretinib; first compound 0.5 µM) | relative viability (GSK-J4 + Foretinib; first compound 1.581 µM) | relative viability (GSK-J4 + Foretinib; first compound 5 µM) | relative viability (GSK-J4 + Foretinib; first compound 15.81 µM) | relative viability (GSK-J4 + Foretinib; first compound 50 µM) | relative viability (AZ3146; 0.08 µM) | relative viability (AZ3146; 0.253 µM) | relative viability (AZ3146; 0.8 µM) | relative viability (AZ3146; 2.53 µM) | relative viability (AZ3146; 8 µM) | relative viability (GSK-J4; 0.5 µM) | relative viability (GSK-J4; 1.581 µM) | relative viability (GSK-J4; 5 µM) | relative viability (GSK-J4; 15.81 µM) | relative viability (GSK-J4; 50 µM)
SK-MES-1 | 1.13 | 1.03 | 1.25 | 1.01 | 0.857 | 0.808 | 0.757 | 0.843 | 0.624 | 0.866 | 1 | 0.985 | 1.07 | 0.991 | 0.95 | 0.965 | 0.937 | 0.932 | 0.928 | 0.783
NCI-H2170 | 0.585 | 0.547 | 0.678 | 0.44 | 0.48 | 0.949 | 0.983 | 0.917 | 1.02 | 0.958 | 0.959 | 0.991 | 0.994 | 1.01 | 0.96 | 1 | 0.89 | 0.893 | 0.916 | 0.969
H3255 | 0.474 | 0.494 | 0.543 | 0.368 | 0.444 | 0.856 | 0.85 | 0.846 | 0.844 | 0.804 | 0.935 | 0.902 | 1.01 | 1.09 | 0.981 | 0.997 | 0.869 | 0.91 | 0.811 | 0.854
EKVX | 0.871 | 0.874 | 1.12 | 0.834 | 0.951 | 0.757 | 0.221 | 0.754 | 0.315 | 0.908 | 0.954 | 0.999 | 0.93 | 1 | 1.04 | 0.998 | 0.71 | 1.03 | 0.85 | 0.898
NCI-H1993 | 1.14 | 0.951 | 1.13 | 0.866 | 0.681 | 0.789 | 0.74 | 0.796 | 0.556 | 0.549 | 0.926 | 0.843 | 1 | 1.03 | 0.489 | 1.13 | 1.09 | 1.08 | 0.756 | 0.533
NCI-H460 | 1.02 | 0.984 | 1.09 | 1.22 | 0.994 | 0.977 | 0.81 | 0.732 | 1 | 0.871 | 0.94 | 1.01 | 1.02 | 0.997 | 0.78 | 0.957 | 0.8 | 0.767 | 0.981 | 1.01
NCI-H1437 | 1.03 | 1.03 | 1.03 | 1.08 | 0.319 | 1.29 | 0.715 | 1.23 | 1.24 | 0.766 | 0.887 | 0.936 | 0.953 | 1.03 | 0.983 | 1.01 | 0.909 | 0.923 | 1.01 | 0.609
NCI-H2347 | 0.7 | 0.746 | 0.774 | 0.829 | 0.608 | 1.16 | 0.716 | 1.06 | 0.843 | 0.826 | 0.997 | 1.03 | 0.913 | 1.1 | 1.07 | 0.984 | 0.879 | 0.886 | 0.952 | 0.849
NCI-H1944 | 1.06 | 0.953 | 1.15 | 0.913 | 1 | 0.934 | 0.872 | 1.01 | 0.747 | 0.759 | 0.777 | 0.919 | 1.07 | 1.03 | 0.982 | 0.939 | 0.874 | 0.828 | 0.734 | 0.931
NCI-H2126 | 0.823 | 0.842 | 0.849 | 0.72 | 0.709 | 1.06 | 1.05 | 1.14 | 0.889 | 0.795 | 0.972 | 1 | 0.99 | 1.06 | 0.919 | 0.973 | 0.944 | 1.02 | 0.906 | 0.83
HCC-78 | 0.779 | 0.681 | 1.01 | – | 0.689 | 0.571 | 0.508 | 0.675 | 0.589 | 0.631 | – | 1.01 | 0.864 | 0.989 | 0.956 | 1.06 | 0.946 | 1.14 | 0.728 | 0.92
PC-14 | 0.939 | 1.02 | 0.948 | 1.02 | 0.926 | 0.902 | 0.832 | 0.794 | 0.926 | 0.963 | 0.958 | 0.967 | 1.02 | 1.04 | 0.784 | 1.02 | 0.916 | 0.769 | 0.985 | 1.01
NCI-H520 | 1.07 | 0.957 | 1.21 | 0.694 | 1.06 | 0.691 | 0.689 | 0.811 | 0.613 | 0.626 | 0.875 | 0.971 | 0.832 | 1.04 | 0.999 | 0.985 | 0.621 | 0.857 | 0.702 | 0.853
LXF-289 | 0.864 | 0.838 | 0.955 | 0.933 | 0.867 | 0.974 | 0.93 | 1.01 | 0.929 | 0.924 | 0.944 | 0.991 | 0.989 | 1.02 | 0.982 | 1.02 | 0.903 | 0.967 | 1.02 | 0.983
